Tests used:
[1] = test system: Puccinia recondita f. sp. tritici; assay: Puccinia recondita f. sp. tritici / wheat / leaf disc preventative (brown rust); type: in vivo; conditions: foliar, wheat leaf segments cv. Kanzler, inoculated 1 day after application, assessed 7-9 days after application, read-out: control of Puccinia recondita f. sp. tritici compared to untreated control
Method: Leaf disks or leaf segments of various plant species are cut from plants grown in a greenhouse. The cut leaf disks or segments are placed in multiwell plates (24-well format) onto water agar. The leaf disks are sprayed with a test solution before (preventative) or after (curative) inoculation. Compounds to be tested are prepared as DMSO solutions (max. 10 mg/ml) which are diluted to the appropriate concentration with 0.025% Tween20 just before spraying. The inoculated leaf disks or segments are incubated under defined conditions (temperature, relative humidity, light, etc.) according to the respective test system. A single evaluation of disease level is carried out 3 to 14 days after inoculation, depending on the pathosystem. Percent disease control relative to the untreated check leaf disks or segments is then calculated. Wheat leaf segments cv. Kanzler are placed on agar in multiwell plates (24-well format) and sprayed with the formulated test compound diluted in water. The leaf disks are inoculated with a spore suspension of the fungus 1 day after application. The inoculated leaf segments are incubated at 19° C. and 75% rh under a light regime of 12 h light/12 h darkness in a climate cabinet and the activity of a compound is assessed as percent disease control compared to untreated when an appropriate level of disease damage appears in untreated check leaf segments (7-9 days after application).

[2] = test system: Glomerella lagenarium (Colletotrichum lagenarium); assay: Glomerella lagenarium (Colletotrichum lagenarium) liquid culture / cucumber / preventative (anthracnose); type: cell-based; conditions: Colletotrichum orbiculare, liquid culture in PDB, 24° C., 3-4 days after application, read-out: control of Glomerella lagenarium compared to untreated control (inhibition of growth, photometric)
Method: Mycelia fragments or conidia suspensions of a fungus prepared either freshly from liquid cultures of the fungus or from cryogenic storage, are directly mixed into nutrient broth. DMSO solutions of the test compound (max. 10 mg/ml) are diluted with 0.025% Tween20 by a factor of 50 and 10 μl of this solution is pipetted into a microtiter plate (96-well format). The nutrient broth containing the fungal spores/mycelia fragments is then added to give an end concentration of the tested compound. The test plates are incubated in the dark at 24° C. and 96% relative humidity. The inhibition of fungal growth is determined photometrically after 2 to 7 days, depending on the pathosystem, and percent antifungal activity relative to the untreated check is calculated. Conidia of the fungus from cryogenic storage are directly mixed into nutrient broth (PDB potato dextrose broth). After placing a (DMSO) solution of test compound into a microtiter plate (96-well format), the nutrient broth containing the fungal spores is added. The test plates are incubated at 24° C. and the inhibition of growth is measured photometrically 3-4 days after application.

[3] = test system: Puccinia recondita f. sp. tritici; assay: Puccinia recondita f. sp. tritici / wheat / leaf disc curative (brown rust); type: in vivo; conditions: foliar, wheat leaf segments cv. Kanzler, applied 1 day after inoculation, assessed 6-8 days after application, read-out: control of Puccinia recondita f. sp. tritici compared to untreated control
Method: Leaf disks or leaf segments of various plant species are cut from plants grown in a greenhouse. The cut leaf disks or segments are placed in multiwell plates (24-well format) onto water agar. The leaf disks are sprayed with a test solution before (preventative) or after (curative) inoculation. Compounds to be tested are prepared as DMSO solutions (max. 10 mg/ml) which are diluted to the appropriate concentration with 0.025% Tween20 just before spraying. The inoculated leaf disks or segments are incubated under defined conditions (temperature, relative humidity, light, etc.) according to the respective test system. A single evaluation of disease level is carried out 3 to 14 days after inoculation, depending on the pathosystem. Percent disease control relative to the untreated check leaf disks or segments is then calculated. Wheat leaf segments cv. Kanzler are placed on agar in multiwell plates (24-well format). The leaf segments are inoculated with a spore suspension of the fungus. Plates are stored in darkness at 19° C. and 75% rh. The formulated test compound diluted in water is applied 1 day after inoculation. The leaf segments are incubated at 19° C. and 75% rh under a light regime of 12 h light/12 h darkness in a climate cabinet and the activity of a compound is assessed as percent disease control compared to untreated when an appropriate level of disease damage appears in untreated check leaf segments (6-8 days after application).

Uromyces viciae-fabae = Uromyces viciae-fabae / field bean / leaf disc preventative (faba-bean rust); type: in vivo; conditions: foliar, 288 h, 100 ppm in the applied formulation, field bean leaf discs, inoculated two hours after application, 12 days after application, read-out: disease control compared to untreated control leaf discs
Method: Leaf disks or leaf segments of various plant species are cut from plants grown in a greenhouse. The cut leaf disks or segments are placed in multiwell plates (24-well format) onto water agar. The leaf disks are sprayed with a test solution before (preventative) or after (curative) inoculation. Compounds to be tested are prepared as DMSO solutions (max. 10 mg/ml) which are diluted to the appropriate concentration with 0.025% Tween20 just before spraying. The inoculated leaf disks or segments are incubated under defined conditions (temperature, relative humidity, light, etc.) according to the respective test system. A single evaluation of disease level is carried out 3 to 14 days after inoculation, depending on the pathosystem. Percent disease control relative to the untreated check leaf disks or segments is then calculated. Field bean leaf discs are placed on water agar in multiwell plates (96-well format) and 10 μl of the formulated test compound diluted in acetone and a spreader pipetted onto the leaf disc. Two hours after application leaf discs are inoculated by spraying a spore suspension on the lower leaf surface. The leaf discs are incubated in a climate cabinet at 22° C. with 18 hour day and 70% relative humidity. The activity of a compound is assessed as percent disease control compared to untreated when an appropriate level of disease damage appears in untreated check leaf disks (12 days after application).

Phakopsora pachyrhizi = Phakopsora pachyrhizi / soybean / leaf disc preventative (Asian soybean rust); type: in vivo; conditions: foliar, soybean leaf disks, inoculated one day after application, assessed 12-14 days after application, read-out: control of Phakopsora pachyrhizi compared to untreated control
Method: Leaf disks or leaf segments of various plant species are cut from plants grown in a greenhouse. The cut leaf disks or segments are placed in multiwell plates (24-well format) onto water agar. The leaf disks are sprayed with a test solution before (preventative) or after (curative) inoculation. Compounds to be tested are prepared as DMSO solutions (max. 10 mg/ml) which are diluted to the appropriate concentration with 0.025% Tween20 just before spraying. The inoculated leaf disks or segments are incubated under defined conditions (temperature, relative humidity, light, etc.) according to the respective test system. A single evaluation of disease level is carried out 3 to 14 days after inoculation, depending on the pathosystem. Percent disease control relative to the untreated check leaf disks or segments is then calculated. Soybean leaf disks are placed on water agar in multiwell plates (24-well format) and sprayed with the formulated test compound diluted in water. One day after application leaf discs are inoculated by spraying a spore suspension on the lower leaf surface. After an incubation period in a climate cabinet of 24-36 hours in darkness at 20° C. and 75% rh leaf disc are kept at 20° C. with 12 h light/12 h darkness and 75% rh. The activity of a compound is assessed as percent disease control compared to untreated when an appropriate level of disease damage appears in untreated check leaf disks (12-14 days after application).

CCONC(=O)c1ccc(-c2noc(C(F)(F)F)n2)c(F)c1 [Compound 1.13, N-ethoxy-3-fluoro-4-[5-(trifluoromethyl)-1,2,4-oxadiazol-3-yl]benzamide]
melting point: 139 to 144 °C | pest or weed control at 200 ppm [1]: ≥ 80% | inhibition at 20 ppm [2]: ≥ 80%

O=C(NOCC(F)F)c1ccc(-c2noc(C(F)(F)F)n2)c(F)c1 [Compound 1.14, N-(2,2-difluoroethoxy)-3-fluoro-4-[5-(trifluoromethyl)-1,2,4-oxadiazol-3-yl]benzamide]
melting point: 138 to 140 °C | pest or weed control at 200 ppm [1]: ≥ 80% | inhibition at 20 ppm [2]: ≥ 80% | pest or weed control at 200 ppm [3]: ≥ 80%

C=CCONC(=O)c1ccc(-c2noc(C(F)(F)F)n2)c(F)c1 [Compound 1.15, N-allyloxy-3-fluoro-4-[5-(trifluoromethyl)-1,2,4-oxadiazol-3-yl]benzamide]
melting point: 132 to 136 °C | pest or weed control at 200 ppm [1]: ≥ 80% | inhibition at 20 ppm [2]: ≥ 80% | pest or weed control at 200 ppm [3]: ≥ 80%

CONC(=O)Cc1ccc(-c2noc(C(F)(F)F)n2)cc1F [Compound 1.20, 2-[2-fluoro-4-[5-(trifluoromethyl)-1,2,4-oxadiazol-3-yl]phenyl]-N-methoxy-acetamide]
melting point: 150 to 152 °C | pest or weed control at 200 ppm [1]: ≥ 80% | inhibition at 20 ppm [2]: ≥ 80% | pest or weed control at 200 ppm [3]: ≥ 80%

CCONC(=O)Cc1ccc(-c2noc(C(F)(F)F)n2)cc1F [Compound 1.21, N-ethoxy-2-[2-fluoro-4-[5-(trifluoromethyl)-1,2,4-oxadiazol-3-yl]phenyl]acetamide]
melting point: 81 to 83 °C | pest or weed control at 200 ppm [1]: ≥ 80% | inhibition at 20 ppm [2]: ≥ 80% | pest or weed control at 200 ppm [3]: ≥ 80%

O=C(Cc1ccc(-c2noc(C(F)(F)F)n2)cc1F)NOCC(F)F [Compound 1.23, N-(2,2-difluoroethoxy)-2-[2-fluoro-4-[5-(trifluoromethyl)-1,2,4-oxadiazol-3-yl]phenyl]acetamide]
melting point: 114 to 116 °C | pest or weed control at 200 ppm [1]: ≥ 80% | inhibition at 20 ppm [2]: ≥ 80% | pest or weed control at 200 ppm [3]: ≥ 80%

COC(=O)CN(OC)C(=O)c1ccc(-c2noc(C(F)(F)F)n2)cc1 [Compound 2.8, methyl 2-[methoxy-[4-[5-(trifluoromethyl)-1,2,4-oxadiazol-3-yl]benzoyl]amino]acetate]
pest or weed control at 200 ppm [1]: ≥ 80% | inhibition at 20 ppm [2]: ≥ 80% | pest or weed control at 100 ppm (Uromyces viciae-fabae): ≥ 80% | pest or weed control at 200 ppm (Phakopsora pachyrhizi): ≥ 80% | pest or weed control at 200 ppm [3]: ≥ 80%

C=CCN(OC)C(=O)c1ccc(-c2noc(C(F)(F)F)n2)cc1 [Compound 2.10, N-allyl-N-methoxy-4-[5-(trifluoromethyl)-1,2,4-oxadiazol-3-yl]benzamide]
pest or weed control at 200 ppm [1]: ≥ 80% | inhibition at 20 ppm [2]: ≥ 80% | pest or weed control at 100 ppm (Uromyces viciae-fabae): ≥ 80% | pest or weed control at 200 ppm (Phakopsora pachyrhizi): ≥ 80% | pest or weed control at 200 ppm [3]: ≥ 80%

C=CCONC(=O)Cc1ccc(-c2noc(C(F)(F)F)n2)cc1 [Compound 2.14, N-allyloxy-2-[4-[5-(trifluoromethyl)-1,2,4-oxadiazol-3-yl]phenyl]acetamide]
melting point: 153 to 158 °C | pest or weed control at 200 ppm [1]: ≥ 80% | inhibition at 20 ppm [2]: ≥ 80%

O=C(Cc1ccc(-c2noc(C(F)(F)F)n2)cc1)NOCc1ccccc1 [Compound 2.15, N-benzyloxy-2-[4-[5-(trifluoromethyl)-1,2,4-oxadiazol-3-yl]phenyl]acetamide]
melting point: 135 to 138 °C | pest or weed control at 200 ppm [1]: ≥ 80% | inhibition at 20 ppm [2]: ≥ 80%

O=C(NOCC(F)F)c1ccc(-c2noc(C(F)(F)F)n2)cc1 [Compound 2.18, N-(2,2-difluoroethoxy)-4-[5-(trifluoromethyl)-1,2,4-oxadiazol-3-yl]benzamide]
melting point: 134 to 137 °C | pest or weed control at 200 ppm [1]: ≥ 80% | inhibition at 20 ppm [2]: ≥ 80% | pest or weed control at 200 ppm [3]: ≥ 80%

Source: patent US11154060B2, “Microbiocidal oxadiazole derivatives” (SYNGENTA PARTICIPATIONS AG, priority 2016, dated 2021)
